Assays:
[1] = system: U251MG glioblastoma cells; assay: Cytotoxicity assay, cell survival by crystal violet staining; format: cell-based, human
Experimental: 20,000 U251MG glioblastoma cells or human astrocytic cells (ScienCell) were plated into 96-well plates. After 24 h cells were treated with rhHMGB1 (Sigma Aldrich) or rat recombinant HMGB1 (generously provided by Angelika Bierhaus, Heidelberg, Germany), and TRAIL (for 24 h) or Temozolomide (for 72 h) alone or in combination, respectively. […] Cell proliferation was assessed by seeding 50,000 U251 MG cells in 6 cm culture plates and treatment with rhHMGB1, followed by counting the cells in a Neubauer chamber at day 0, 2, 4 and 5.

NCH421 K cells = assay: Propidiumiodide (PI) uptake by FACS analysis; format: cell-based; conditions: 80 nM or 600 nM (FIG. 12C)
U251 MG cells = assay: Western blot of phospho-H2A.X and BNIP3; format: cell-based, human; conditions: 24 h (FIG. 7)
Experimental: The U251 MG tumor cells were lysed in lysis buffer containing 20 mmol/L Tris-HCl (pH 7.4), 137 mmol/L NaCl, 10% (v/v) glycerine, 1% Triton X-100, 2 mmol/L EDTA, 100 mmol/L phenylmethylsulfonyl fluoride, and protease inhibitors (Complete mini; Roche Molecular Biochemicals). For the detection of phosphoprotein levels, 10 mmol/L NaPPi, 50 mmol/L NaF, and 20 mmol/L NaVO4 were added to the lysis buffer. After 15 min incubation on ice, the lysates were centrifuged at 14,000×g for 10 min. The total protein concentration of the lysates was measured using the Bradford assay (Bio-Rad). Soluble protein (25-100 μg per lane) was separated on 10% to 15% polyacrylamide gels and blotted onto nitrocellulose by standard procedures. […]

U251MG glioma cells = assay: Subcellular fractionation after iodine-125 labelled rhHMGB1; immunofluorescence colocalization; format: cell-based, human; conditions: 40 nM for 24 h (FIG. 8B)
Experimental: U251 cells were seeded on 10 cm culture dishes. […], 4 h, 16 h and 24 h, the cells were detached carefully by incubation with cell dissociation buffer (30 min) in order to protect possible surface proteinreceptor-complexes, harvested, and subjected to subcellular fractionation using the ApoAlert Fractionation Kit as described below (the plasma membrane fraction was extracted from the cytoplasmatic fraction by a last centrifugation step of 400.000×g for 15 min at 4° C.). Successful fractionation was confirmed by western blot. Successful coupling of the HMGB1-tyrosine residues with I-125 was shown by the high radioactivity in the protein fraction of sephadex G25 gel filtration (early eluates). Fraction 4 was used for the incubation of cells with I-125-HMGB1. For radioactivity measurements cells were solubilized in 0.5M NaOH and mixed with 10 ml LSC cocktail (Ultima Gold, Perkin Elmer, Waltham Mass.). The radioactivity of each subcellular fraction was measured in a liquid scintillation counter (Packard TriCarb 2900, Meriden, Ill.) by using the Compton effect.
Enrichment of mitochondrial fractions was performed using the ApoAlert Cell Fractionation Kit (Clontech, Mountain View, Calif.) as described previously (Gdynia et al., 2008). […]

## rhHMGB1: recombinant human High Mobility Group B1 protein (Sigma Aldrich)
[1]; 4 nM rhHMGB1 and TRAIL, 24 h (FIG. 1C)
  cell death, combined treatment with TRAIL: strong synergistic induction of cell death
[1]; 4 nM rhHMGB1 and temozolomide, 72 h (FIG. 1C)
  cell death, combined treatment with Temozolomide: strong synergistic induction of cell death
[1]; 80 nM, after 48 h
  cell death: substantial cell death
[1]; 72 h (FIG. 1B)
  susceptibility to rhHMGB1-induced cell death: susceptible
NCH421 K cells
  Propidiumiodide (PI) uptake compared to untreated control: evidently increased
U251 MG cells
  BNIP3 expression: not up-regulated
  H2A.X phosphorylation: not observed
U251MG glioma cells
  mitochondrial localization, co-staining with mitochondrial marker (MitoTracker): confirmed

— patent publication US20110123483A1, “HMGB1 FOR CANCER TREATMENT” (DEUTSCHES KREBSFORSCHUNGSZENTRUM, priority 2009, published 2011)
